Assay results taken from patent US6809091B1, “Substances capable of inducing apoptosis” (Takara Bio Inc., priority 1998, dated 2004).

Legend:
human IL-10 = assay: cytokine production in DSEK cells, ELISA; format: cell-based; conditions: DSEK cell incubation, supernatant every 24 hours
Protocol: (§1) Now, in the DSEK cell incubation, 150 μl/well of the supernatant liquid of the medium were recovered every 24 hours and influence of 4-hydroxy-2-cyclopenten-1-one or 4,5-dihydroxy-2-pentenal on the production of cytokines (human TGF-β, human FGF-β, human IL-1α and human IL-10) was measured using an ELISA-kit specific to each of the cytokine (the kit manufactured by INTERGEN or human FGF-β and human IL-10; and the kit manufactured by Promega for human IL-1α and human TGF-β).

HL-60 cells = assay: measurement of apoptosis cells using FACScan; format: cell-based, human; conditions: HL-60, 24 hours and 48 hours
Protocol: (2) HL-60 cells which were incubated on an RPMI 1640 medium containing 10% of fetal bovine serum processed at 56° C. for 30 minutes were suspended in an RPMI 1640 medium to make 2.5×10^5 cells/5 ml. […]

human TGF-β = assay: cytokine production in DSEK cells, ELISA; format: cell-based; conditions: DSEK cell incubation, supernatant every 24 hours
Protocol: as §1

RAW 264.7 cells = assay: cell growth in the NO production test; format: cell-based; conditions: final concentration of 10 μM
[1] = tested on: NO production in RAW 264.7 cells; assay: inhibition of NO production, NO2− by Griess reagent; format: cell-based
Protocol: (1) RAW 264.7 cells (ATCC TIB 71) were suspended to an extent of 3×10^5 cells/ml in an Eagle's medium modified by Dulbecco (manufactured by BioWhittaker; 12-917F) containing 10% fetal bovine serum (manufactured by Gibco), no Phenol Red and 2 mM of L-glutamine (manufactured by Lifetech Oriental; 25030-149) and each 500 μl of the suspension were added to each well of a 48-well microtiter plate and incubated at 37° C. for 12 hours in the presence of 5% carbon dioxide gas. To the well were added 10 μl of a 50 μg/ml lipopolysaccharide (LPS; manufactured by Sigma, L-2012) or each 10 μl of a 2.5 μg/ml of LPS and a 500 units/ml of interferon γ (manufactured by Genzyme; code MG-IFN), then 10 μl of a 1000, 500 or 250 μM aqueous solution of 2-(trans-3,4-dihydroxy-1-butenyl)-4-(trans-2-formylvinyl)-1,3-dioxolane were added, the mixture was incubated for 18 hours more and the NO2^− concentration generated by oxidation of NO in the medium was measured. Incidentally, a section to which LPS and interferon γ were not added and a section to which 2-(trans-3,4-dihydroxy-1-butenyl)-4-(trans-2-formylvinyl)-1,3-dioxolane was not added were prepared as controls.
After the above incubation, 100 μl of a 4% Griess reagent (manufactured by Sigma; G4410) were added to 100 μl of the medium, the mixture was allowed to stand at room temperature for 15 minutes and the absorbance at 490 nm was measured. From a calibration curve prepared by NaNO2 of known concentrations dissolved in the above medium, the NO2^− concentration in the medium was calculated. All measurements were conducted in three series.

O=CC=CC(O)CO (single isomer, unassigned) [4,5-dihydroxy-2-pentenal, trans-4,5-dihydroxy-2-pentenal]
production of human IL-10 (human IL-10): activated

Nc1nc2c(ncn2C2C=CC(=O)C2)c(=O)[nH]1 (stereo not shown) [4-(9-guaninyl)-2-cyclopenten-1-one]
final concentration at which apoptosis cells were confirmed (HL-60 cells): ≥ 20 µM
production of human TGF-β (human TGF-β): inhibited

O=C/C=C/C1COC(/C=C/C(O)CO)O1 (stereo not drawn) [2-(trans-3,4-dihydroxy-1-butenyl)-4-(trans-2-formylvinyl)-1,3-dioxolane]
inhibition of cell growth (RAW 264.7 cells): no inhibition of cell growth was noted at all
induction of NO production by LPS ([1]; 18 hours): inhibited
induction of NO production by LPS and interferon γ ([1]; 18 hours): inhibited
inhibition at 10 µM ([1]; Mus musculus, RAW264.7, final concentration of 10 μM, read-out: inhibiting activity for NO production): ~50%
